Data taken from ChEMBL document CHEMBL1201862, “PubChem BioAssay data set” (2004).
The source made the active and inactive calls.

Legend:
[1] = target: Nuclear receptor subfamily 5 group A member 2 (Homo sapiens, UniProt O00482); assay type: functional, cell-based;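 also: HEK293T cells transfected with LRH-1 and a StAR promoter luciferase reporter; potency for inhibitors that lower LRH-1 driven reporter light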
Steroidogenic factor 1 = Steroidogenic factor 1 (Homo sapiens, UniProt Q13285); assay: Counterscreen for inverse agonists of the liver receptor homolog-1 (LRH-1; NR5A2): Luminescence-based cell-based high throughput dose response assay to identify inverse agonists of the Steroidogenic Factor 1 Nuclear Receptor (SF1; NR5A1).; assay type: functional
Chain of Steroidogenic factor 1 (Q13285 whole entry): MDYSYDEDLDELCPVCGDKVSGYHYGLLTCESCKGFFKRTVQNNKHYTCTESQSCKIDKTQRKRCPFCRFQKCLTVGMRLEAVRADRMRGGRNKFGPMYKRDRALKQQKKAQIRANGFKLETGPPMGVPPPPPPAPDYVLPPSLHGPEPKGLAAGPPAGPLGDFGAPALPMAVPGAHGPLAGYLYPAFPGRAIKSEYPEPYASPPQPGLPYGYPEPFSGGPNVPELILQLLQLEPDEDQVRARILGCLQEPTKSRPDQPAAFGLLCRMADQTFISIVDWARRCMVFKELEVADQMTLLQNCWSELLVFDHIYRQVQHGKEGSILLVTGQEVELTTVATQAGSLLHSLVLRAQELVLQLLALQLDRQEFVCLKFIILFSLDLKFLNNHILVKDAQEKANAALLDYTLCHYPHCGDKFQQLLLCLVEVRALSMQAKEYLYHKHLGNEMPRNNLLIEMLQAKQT

[2] = StAR promoter reporter inhibition counter-screen, dose response, counter-screen for LRH-1 inverse agonist project, cell-based, luminescence, luciferase reporter (AID 651969); assay type: functional
Streptococcus = assay: Group A Streptococcus viability loss, dose response, counter-screen for streptokinase expression inhibitor project, luminescence, BacTiterGlo (AID 1915); assay type: functional, organism-based;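 also: potency for reduction of bacterial viability or growth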
[3] = target: Photoreceptor-specific nuclear receptor (Homo sapiens, UniProt Q9Y5X4); assay type: functional, cell-based;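 also: CHO-S cells with Gal4-NCOR and VP16-NR2E3 two-hybrid luciferase reporter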
Chain of Photoreceptor-specific nuclear receptor (Q9Y5X4 whole entry, the tested form may be a part): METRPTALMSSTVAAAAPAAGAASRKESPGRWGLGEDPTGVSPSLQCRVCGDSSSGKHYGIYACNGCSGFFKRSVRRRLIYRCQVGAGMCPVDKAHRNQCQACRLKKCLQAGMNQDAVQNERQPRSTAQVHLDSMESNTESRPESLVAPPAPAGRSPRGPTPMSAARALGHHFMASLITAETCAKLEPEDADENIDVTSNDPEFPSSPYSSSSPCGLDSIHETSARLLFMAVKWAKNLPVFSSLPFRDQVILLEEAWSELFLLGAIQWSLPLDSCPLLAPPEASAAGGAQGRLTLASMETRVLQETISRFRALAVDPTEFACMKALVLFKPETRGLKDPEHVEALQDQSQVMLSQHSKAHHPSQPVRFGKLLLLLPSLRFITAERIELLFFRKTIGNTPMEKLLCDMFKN

[4] = system: Streptococcus sp. 'group A'; assay: growth inhibition of control SK(-) GAS strain, dose response, counter-screen for streptokinase expression inhibitor project, luminescence, kanamycin, BacTiterGlo, confirmation (AID 1900); assay type: functional, organism-based
Beta-galactosidase = Beta-galactosidase (Escherichia coli, UniProt Q8VNN2); assay: beta-galactosidase enzyme inhibitors and activators, dose response, artefact control for CCR6 antagonist project, biochemical, E. coli enzyme, set 3 (AID 504712); assay type: functional
Chain of Beta-galactosidase (Q8VNN2 whole entry): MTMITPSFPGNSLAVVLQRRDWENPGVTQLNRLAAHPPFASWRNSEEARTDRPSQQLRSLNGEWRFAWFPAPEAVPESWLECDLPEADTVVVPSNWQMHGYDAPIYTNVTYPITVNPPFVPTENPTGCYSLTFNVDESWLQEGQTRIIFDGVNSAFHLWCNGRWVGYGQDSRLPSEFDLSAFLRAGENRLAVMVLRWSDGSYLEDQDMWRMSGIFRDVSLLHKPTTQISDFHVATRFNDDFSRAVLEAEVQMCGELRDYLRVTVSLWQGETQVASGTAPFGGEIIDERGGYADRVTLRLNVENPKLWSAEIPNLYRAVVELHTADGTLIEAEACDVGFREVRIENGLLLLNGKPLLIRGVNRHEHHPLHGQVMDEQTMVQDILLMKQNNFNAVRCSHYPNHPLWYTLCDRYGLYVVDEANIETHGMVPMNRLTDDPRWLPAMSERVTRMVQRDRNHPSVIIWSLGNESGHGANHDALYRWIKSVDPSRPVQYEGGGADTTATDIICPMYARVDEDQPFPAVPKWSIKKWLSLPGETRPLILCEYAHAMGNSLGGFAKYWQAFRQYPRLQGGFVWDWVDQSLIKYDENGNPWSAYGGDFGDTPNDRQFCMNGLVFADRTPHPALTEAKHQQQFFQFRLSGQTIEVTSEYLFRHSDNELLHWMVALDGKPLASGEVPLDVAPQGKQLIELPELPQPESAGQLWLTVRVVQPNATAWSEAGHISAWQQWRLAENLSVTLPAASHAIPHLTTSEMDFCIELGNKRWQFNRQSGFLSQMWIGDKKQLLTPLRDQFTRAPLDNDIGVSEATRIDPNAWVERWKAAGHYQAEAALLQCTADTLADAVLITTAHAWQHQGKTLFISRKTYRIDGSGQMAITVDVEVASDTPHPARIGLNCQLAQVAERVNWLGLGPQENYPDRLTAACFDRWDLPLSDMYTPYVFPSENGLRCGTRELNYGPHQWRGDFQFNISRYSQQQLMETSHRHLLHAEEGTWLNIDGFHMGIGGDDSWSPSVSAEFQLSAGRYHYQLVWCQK

[5] = target: T1, Small ubiquitin-related modifier 1 (Homo sapiens, UniProt P63165); assay: inhibitors of SUMO1 peptide binding, dose response, biochemical, fluorescence polarization, uHTS hits (AID 624382); assay type: functional; details: read-out: IC50_Mean
T1 sequence (P63165 whole entry): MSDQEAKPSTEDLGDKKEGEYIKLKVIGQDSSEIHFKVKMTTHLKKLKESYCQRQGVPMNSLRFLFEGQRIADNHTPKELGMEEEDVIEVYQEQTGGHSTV

[6] = target: T1, Small ubiquitin-related modifier 1; assay: inhibitors of SUMO1 partner interactions, dose response, biochemical, FRET (AID 624383); assay type: functional; details: read-out: IC50_Mean
Galanin receptor type 3 = target: T2, Galanin receptor type 3 (Homo sapiens, UniProt O60755); assay: Fluorescence-based cell-based primary high throughput dose response assay to identify antagonists of the Galanin Receptor 3 (GalR3).; assay type: functional
T2 sequence (O60755 whole entry): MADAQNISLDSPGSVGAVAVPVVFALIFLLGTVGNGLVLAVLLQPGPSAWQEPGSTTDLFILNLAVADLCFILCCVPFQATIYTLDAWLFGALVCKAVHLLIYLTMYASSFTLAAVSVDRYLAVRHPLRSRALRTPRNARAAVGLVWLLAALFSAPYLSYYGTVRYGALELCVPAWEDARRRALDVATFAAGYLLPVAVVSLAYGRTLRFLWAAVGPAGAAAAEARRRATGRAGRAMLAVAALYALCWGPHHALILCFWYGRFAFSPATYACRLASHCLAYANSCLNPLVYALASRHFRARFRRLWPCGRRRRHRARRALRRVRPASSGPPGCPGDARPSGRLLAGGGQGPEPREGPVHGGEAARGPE

[7] = control 3'UTR Renilla luciferase suppression, dose response, counter-screen for Shn3 inhibitor project, cell-based, Clone20-Shn3RL, cherry-picked (AID 624133); assay type: functional
[8] = HepG2 cell cytotoxicity, dose response, cytotoxicity control for Shn3 inhibitor project, CellTiter-Glo, cherry-picked (AID 624134); assay type: functional, cell-based
cells = assay type: functional, cell-based; details: HEK-CNG
[9] = target: T3, COUP transcription factor 2 (Homo sapiens, UniProt P24468); assay: Luminescence-based cell-based high throughput dose response assay to identify inhibitors of COUP-TFII (NR2F2).; assay type: functional;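 also: HEK293 cells transiently cotransfected with COUP-TFII expression vector and reporter; luciferase reporter luminescence driven by COUP-TFII from the pX2-168 reporter plasmid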
T3 sequence (P24468 whole entry): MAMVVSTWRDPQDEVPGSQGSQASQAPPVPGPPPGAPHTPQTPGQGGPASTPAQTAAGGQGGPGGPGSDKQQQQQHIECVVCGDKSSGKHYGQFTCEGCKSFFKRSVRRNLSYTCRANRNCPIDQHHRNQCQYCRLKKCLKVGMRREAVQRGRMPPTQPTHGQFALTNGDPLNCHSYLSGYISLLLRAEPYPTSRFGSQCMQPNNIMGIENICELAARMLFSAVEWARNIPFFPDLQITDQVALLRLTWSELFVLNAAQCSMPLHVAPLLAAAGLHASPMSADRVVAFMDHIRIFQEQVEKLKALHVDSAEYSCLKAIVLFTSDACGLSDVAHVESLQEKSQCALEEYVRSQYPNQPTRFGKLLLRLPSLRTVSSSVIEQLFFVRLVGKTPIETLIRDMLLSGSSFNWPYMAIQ

[10] = Shn3 3'UTR reporter inhibitors, dose response, cell-based, Clone20 osteoblasts, firefly luciferase, cherry-picked (AID 624132); assay type: functional;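 also: firefly luciferase luminescence from reporter carrying the Shn3 3'UTR in osteoblasts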

Chain of Nuclear receptor subfamily 5 group A member 2 (O00482 whole entry): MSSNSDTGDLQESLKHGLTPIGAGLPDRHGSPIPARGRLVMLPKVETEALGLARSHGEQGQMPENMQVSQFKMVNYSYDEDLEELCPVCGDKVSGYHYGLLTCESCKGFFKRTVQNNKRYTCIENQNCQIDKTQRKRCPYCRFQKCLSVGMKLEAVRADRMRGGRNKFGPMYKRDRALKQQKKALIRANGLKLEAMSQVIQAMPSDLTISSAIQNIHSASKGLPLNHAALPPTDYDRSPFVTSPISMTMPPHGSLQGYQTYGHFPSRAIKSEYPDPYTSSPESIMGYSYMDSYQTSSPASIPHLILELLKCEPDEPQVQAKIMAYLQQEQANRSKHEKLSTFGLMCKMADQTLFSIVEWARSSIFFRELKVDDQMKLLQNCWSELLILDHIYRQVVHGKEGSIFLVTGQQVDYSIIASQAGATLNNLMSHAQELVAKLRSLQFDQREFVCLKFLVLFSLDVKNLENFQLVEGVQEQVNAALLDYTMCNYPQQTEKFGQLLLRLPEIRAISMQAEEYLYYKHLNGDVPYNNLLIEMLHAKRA

COC(=O)c1ccc(CNC(=O)COC(=O)c2cc(Cl)nc(Cl)c2)cc1
IC50 [1]: 12 µM (inactive)
IC50 (Steroidogenic factor 1): 12 µM (inactive)
IC50 [2]: 35.9 µM (inactive)

Cc1cc(Br)ccc1NC(=O)CN1C(=O)CCC1=O
IC50 [1]: 12 µM (inactive)
IC50 (Steroidogenic factor 1): 0.877 µM (active)
IC50 [2]: 35.9 µM (inactive)

Cc1ccc(Cc2cnc(N3C(=N)SC(C)C3=O)s2)cc1 (stereo not drawn)
EC50 (Streptococcus): 3.44 µM (active)
IC50 [3]: 1.89 µM (active)
EC50 [4]: 574 nM (active)
IC50 (Beta-galactosidase): > 66.6 µM (inactive)

C=CCCC(=O)Nc1nc(C)c(-c2csc(Nc3cccc(OC)c3)n2)s1
IC50 [5]: > 66.6 µM (inactive)
IC50 [6]: 17.7 µM (active)

S=C(NCCc1ccccc1)Nc1cccc2cnccc12
IC50 (Galanin receptor type 3): 1.66 µM (active)
AC50 [7]: 1.05 µM (active)
AC50 [8]: 2.49 µM (active)
EC50 (cells): > 29.9 µM (inactive)
IC50 [9]: 7.44 µM (active)
AC50 [10]: 922 nM (active)
